Converted amounts (≈) assume the structure as drawn. The source made the active and inactive calls. The calls are words filed in the database; no cut-off is given here.
Legend:
Cell membrane [1] = test: Disruption of cell membrane in methicilin-resistant Staphylococcus aureus ATCC 43300 assessed as appearance of collapsed cell membrane by scanning electron microscopic analysis; assay type: cell membranes
Staphylococcus aureus [2] = test: Inhibition of biofilm formation in methicillin-resistant Staphylococcus aureus ATCC 43300 at 16 microg/ml relative to control; assay type: functional
Staphylococcus aureus [3] = test: Selectivity ratio of MBC for bactericidal activity against methicillin-resistant Staphylococcus aureus ATCC 43300 in presence of 50% human blood to MBC for bactericidal activity against methicillin-resistant Staphylococcus aureus ATCC 43300; assay type: functional
Staphylococcus aureus [4] = test: Bactericidal activity against methicillin-resistant Staphylococcus aureus ATCC 43300 in presence of 50% human plasma by Mueller Hinton broth based assay; assay type: functional
Staphylococcus aureus [5] = test: Inhibition of biofilm formation in methicillin-resistant Staphylococcus aureus ATCC 43300; assay type: functional, organism-based; conditions: dose 2-32 µg/ml
Staphylococcus aureus [6] = test: Induction of ROS production in methicillin-resistant Staphylococcus aureus ATCC 43300 assessed as fold increase in ROS level at 32 microg/ml by DCFH-DA staining based analysis; conditions: dose 32 µg/ml
Staphylococcus aureus [7] = test: Antibacterial activity against methicillin-resistant Staphylococcus aureus ATCC 43300 at 1/2 times of MIC measured after 20 passage; assay type: functional, organism-based
Staphylococcus aureus [8] = test: Antibacterial activity against penicillin-resistant Staphylococcus aureus ATCC 31007; assay type: functional
Pseudomonas aeruginosa = test: Antibacterial activity against penicillin-susceptible Pseudomonas aeruginosa ATCC 27853; assay type: functional
Staphylococcus aureus [9] = test: Drug resistance, ratio of MIC for methicillin-resistant Staphylococcus aureus ATCC 43300 after 20 passages to MIC for methicillin-resistant Staphylococcus aureus ATCC 43300 during first exposure; assay type: functional
Cell membrane [10] = test: Disruption of cell membrane integrity in methicillin-resistant Staphylococcus aureus ATCC 43300 assessed as appearance of red fluorescence by DAPI/PI staning based microscopic analysis; assay type: cell membranes
Staphylococcus aureus [11] = test: Inhibition of biofilm formation in methicillin-resistant Staphylococcus aureus ATCC 43300 at 2 microg/ml relative to control; assay type: functional
Cell membrane [12] = test: Disruption of cell membrane in methicilin-resistant Staphylococcus aureus ATCC 43300 assessed as appearance of wrinkled cell membrane by scanning electron microscopic analysis; assay type: cell membranes
Staphylococcus aureus [13] = test: Selectivity ratio of MBC for bactericidal activity against methicillin-resistant Staphylococcus aureus ATCC 43300 preincubated with 50% human plasma upto 6 hrs to MBC for bactericidal activity against methicillin-resistant Staphylococcus aureus ATCC 43300; assay type: functional
Cell membrane [14] = test: Induction of cytoplasmic membrane permeabilization in methicillin-resistant Staphylococcus aureus ATCC 43300 assessed as increase fluorescence intensity at 16 microg/ml by PI staining based fluorescence analysis; assay type: cell membranes; conditions: dose 16.0 µg/ml
Staphylococcus aureus [15] = test: Inhibition of biofilm formation in methicillin-resistant Staphylococcus aureus ATCC 43300 at 8 microg/ml relative to control; assay type: functional
[16] = Selectivity index, ratio of HC50 for hemolytic activity in sheep RBC to MIC for antibacterial activity against methicillin-resistant Staphylococcus aureus ATCC 43300; assay type: toxicity; conditions: sheep red blood cells (erythrocytes), read-out: Selectivity Index
Staphylococcus aureus [17] = test: Selectivity ratio of MBC for bactericidal activity against methicillin-resistant Staphylococcus aureus ATCC 43300 in presence of 50% human serum to MBC for bactericidal activity against methicillin-resistant Staphylococcus aureus ATCC 43300; assay type: functional
Cell membrane [18] = test: Induction of cell membrane disruption in methicillin-resistant Staphylococcus aureus ATCC 43300 assessed as increase in protein leakage; assay type: cell membranes
Staphylococcus aureus [19] = test: Bactericidal activity against methicillin-resistant Staphylococcus aureus ATCC 43300 assessed as log reduction in bacterial growth at 16 times of MIC measured after 4 hrs by time killing analysis; assay type: functional
Cell membrane [20] = test: Induction of cytoplasmic membrane depolarization in methicillin-resistant Staphylococcus aureus ATCC 43300 assessed as increase in fluorescence intensity by DiSC3(5) dye-based fluorescence assay; assay type: cell membranes
Staphylococcus aureus [21] = test: Antibacterial activity against erythromycin-susceptible Staphylococcus aureus ATCC 25923; assay type: functional
Staphylococcus aureus [22] = test: Bacteriostatic activity against methicillin-resistant Staphylococcus aureus ATCC 43300 assessed as inhibition of bacterial growth at 2 times of MIC measured after 24 hrs by time-kill kinetic analysis; assay type: functional, organism-based
Acinetobacter baumannii = test: Antibacterial activity against Acinetobacter baumannii ATCC 19606; assay type: functional
Staphylococcus aureus [23] = test: Bactericidal activity against methicillin-resistant Staphylococcus aureus ATCC 43300 assessed as bacterial eradication at 16 times of MIC measured at 8 hrs by time kill kinetics analysis relative to control; assay type: functional
Cell membrane [24] = test: Disruption of cell membrane in methicillin-resistant Staphylococcus aureus ATCC 43300 assessed as appearance of broken surface by scanning electron microscopic analysis; assay type: cell membranes
Staphylococcus aureus [25] = test: Disruption of preformed biofilm in methicillin-resistant Staphylococcus aureus ATCC 43300 assessed as eradication of biofilm at 64 microg/ml by crystal violet staining based analysis relative to control; assay type: functional; conditions: dose 64 µg/ml
Staphylococcus aureus [26] = test: Bactericidal activity against methicillin-resistant Staphylococcus aureus ATCC 43300 in presence of 50% human blood by Mueller Hinton broth based assay; assay type: functional; conditions: ATCC 43300, Blood, time <= 6 hrs
Cell membrane [27] = test: Induction of cytoplasmic membrane depolarization in methicillin-resistant Staphylococcus aureus ATCC 43300 assessed as increase in fluorescence intensity at 2 microg/ml by DiSC3(5) dye-based fluorescence assay; assay type: cell membranes; conditions: dose 2.0 µg/ml
Bacillus subtilis = test: Antibacterial activity against penicillin-susceptible Bacillus subtilis ATCC 9372; assay type: functional
Staphylococcus aureus [28] = test: Disruption of preformed biofilm in methicillin-resistant Staphylococcus aureus ATCC 43300 assessed as eradication of biofilm by crystal violet staining method; assay type: functional, organism-based; conditions: dose 2-64 µg/ml
Staphylococcus aureus [29] = test: Bactericidal activity against methicillin-resistant Staphylococcus aureus ATCC 43300 by Mueller Hinton broth based assay; assay type: functional; conditions: time <= 6 hrs
Enterococcus faecalis = test: Antibacterial activity against vancomycin-susceptible Enterococcus faecalis ATCC 29212; assay type: functional
[30] = Hemolytic activity in sheep RBC; assay type: toxicity, cell-based, Ovis aries, Erythrocyte; conditions: sheep red blood cells (erythrocytes)
Escherichia coli = test: Antibacterial activity against penicillin-susceptible Escherichia coli ATCC 25922; assay type: functional
Cell membrane [31] = test: Disruption of cell membrane integrity in methicillin-resistant Staphylococcus aureus ATCC 43300 assessed as appearance of blue fluorescence by DAPI/PI staining based microscopic analysis; assay type: cell membranes
Staphylococcus aureus [32] = test: Antibacterial activity against methicillin-resistant Staphylococcus aureus ATCC 43300; assay type: functional
Staphylococcus aureus [33] = test: Disruption of preformed biofilm in methicillin-resistant Staphylococcus aureus ATCC 43300 assessed as eradication of biofilm at 8 microg/ml by crystal violet staining based analysis relative to control; assay type: functional; conditions: dose 8 µg/ml
Cell membrane [34] = test: Induction of cell membrane disruption in methicillin-resistant Staphylococcus aureus ATCC 43300 assessed as increase in DNA leakage; assay type: cell membranes
Staphylococcus aureus [35] = test: Bactericidal activity against methicillin-resistant Staphylococcus aureus ATCC 43300 in presence of 50% human serum by Mueller Hinton broth based assay; assay type: functional
Klebsiella pneumoniae = test: Antibacterial activity against Klebsiella pneumoniae ATCC 10031; assay type: functional
Staphylococcus aureus [36] = test: Bactericidal activity against methicillin-resistant Staphylococcus aureus ATCC 43300 assessed as reduction in bacterial growth; assay type: functional, organism-based
[37] = tested on: Staphylococcus epidermidis; test: Antibacterial activity erythromycin-susceptible Staphylococcus epidermidis ATCC 12228; assay type: functional
Staphylococcus aureus [38] = test: Bacteriostatic activity against methicillin-resistant Staphylococcus aureus ATCC 43300 assessed as inhibition of bacterial growth at 1 times of MIC measured after 24 hrs by time-kill kinetic analysis; assay type: functional, organism-based
Staphylococcus aureus [39] = test: Drug resistance, ratio of MIC for methicillin-resistant Staphylococcus aureus ATCC 43300 after 19 days exposure to MIC for methicillin-resistant Staphylococcus aureus ATCC 43300 during first exposure; assay type: functional; conditions: time 19 day

CCN(CC)CCCNCCCOc1ccc(/C=C/C(=O)c2ccc3c(c2OC)C=CC(C)(CCC=C(C)C)O3)cc1 (stereo not given)
Activity (Cell membrane [1]): Active
inhibition at 16 µg/mL (Staphylococcus aureus [2]): > 92%
selectivity ratio (Staphylococcus aureus [3]): 2
MBC (Staphylococcus aureus [4]): 32 µg/mL
inhibition (Staphylococcus aureus [5]): Dose-Dependent Effect
fold change (FC) (Staphylococcus aureus [6]): 14
Activity (Staphylococcus aureus [7]): Active
MIC (Staphylococcus aureus [8]): 1 µg/mL (≈ 1.74 µM)
MIC (Pseudomonas aeruginosa): 64 µg/mL (≈ 111 µM)
Ratio (Staphylococcus aureus [9]): 2
Activity (Cell membrane [10]): Active
inhibition at 2 µg/mL (Staphylococcus aureus [11]): 21.2%
Activity (Cell membrane [12]): Active
selectivity ratio (Staphylococcus aureus [13]): <2
Activity (Cell membrane [14]): Active
inhibition at 8 µg/mL (Staphylococcus aureus [15]): 91.6%
selectivity ratio [16]: 135
selectivity ratio (Staphylococcus aureus [17]): 2
Activity (Cell membrane [18]): Active
log(activity) (Staphylococcus aureus [19]): 6
Activity (Cell membrane [20]): Dose-Dependent Effect
MIC (Staphylococcus aureus [21]): 2 µg/mL (≈ 3.48 µM)
Activity (Staphylococcus aureus [22]): Active
MIC (Acinetobacter baumannii): 8 µg/mL (≈ 13.9 µM)
Activity (Staphylococcus aureus [23]): 100%
Activity (Cell membrane [24]): Active
Activity (Staphylococcus aureus [25]): >40%
MBC (Staphylococcus aureus [26]): 64 µg/mL
Activity (Cell membrane [27]): inactive
MIC (Bacillus subtilis): 1 µg/mL (≈ 1.74 µM)
Activity (Staphylococcus aureus [28]): Dose-Dependent Effect
MBC (Staphylococcus aureus [29]): 32 µg/mL (≈ 55.7 µM)
MIC (Enterococcus faecalis): 2 µg/mL (≈ 3.48 µM)
HC50 [30]: 270 µg/mL
MIC (Escherichia coli): 2 µg/mL (≈ 3.48 µM)
Activity (Cell membrane [31]): Active
MIC (Staphylococcus aureus [32]): 2 µg/mL (≈ 3.48 µM)
Activity (Staphylococcus aureus [33]): 19.12%
Activity (Cell membrane [34]): Active
MBC (Staphylococcus aureus [35]): 32 µg/mL
MIC (Klebsiella pneumoniae): 4 µg/mL (≈ 6.96 µM)
Activity (Staphylococcus aureus [36]): Dose-Dependent Effect
MIC [37]: 1 µg/mL (≈ 1.74 µM)
Activity (Staphylococcus aureus [38]): Active

CCn1cc(C(=O)O)c(=O)c2cc(F)c(N3CCNCC3)cc21 [NORFLOXACIN]
Ratio (Staphylococcus aureus [39]): 512

— ChEMBL document CHEMBL5614413, “Design, synthesis and biological evaluation of amphiphilic benzopyran derivatives as potent antibacterial agents against multidrug-resistant bacteria” (Eur J Med Chem, 2024)
